Tests used:
[1] = system: SKBR breast cancer cell line; test: Apoptosis induction in SKBR cells; format: cell-based; settings: to a greater extent than existing HSP90 ATP binding site inhibitors
LNCaP cells [2] = test: Adherent cell growth by luminescent assay of ATP level (CellTiterGlo); format: cell-based; settings: for LNCaP cell viability at higher concentrations: in the presence of androgen, above EC50 of androgen signaling inhibition; for adherent growth of androgen-stimulated LNCaP cells: luminescent assay of ATP levels
Description: To investigate the cellular consequences of celastrol- and gedunin-mediated inhibition, we assessed whether celastrol and gedunin activity results in decreased cell growth, consistent with AR inhibition. […] Second, the compounds' effects on anchorage-independent growth of LNCaP cells was assayed in soft agar (FIG. 6D).
(§1) Adherent cell growth was measured by luminescent assay of ATP level (CellTiterGlo, Promega). LNCaP cells were grown in charcoal-stripped media for 2 days prior to simultaneous treatment with 1 nM R1881 and the relevant compound. Synergy was assessed by analyzing the IC50 of one drug over a range of concentrations of the other drug and vice versa. The resulting concentration pairs were visualized by isobologram (Gessner, 1995). Anchorage independence was measured by soft agar assay (Hahn et al., 1999). Compounds were added to both agar layers. Colonies were scored after 3 weeks.
We also addressed whether celastrol and gedunin activity results in decreased cell growth consistent with inhibition of AR and other HSP90 clients. […] Below this concentration, an intermediate viability inhibition is seen.

LNCaP cells [3] = test: Synergy with HSP90 inhibitors on cell growth by ATP level (isobologram); format: cell-based; settings: 24 hr, low concentrations
Text: (§2) If celastrol and gedunin act on HSP90 function via a distinct mechanism from HSP90 ATP-binding site inhibition (Bagatell et al., 2005), they might act synergistically with existing HSP90 inhibitors. We therefore tested the combinatorial effects of these compounds with HSP90 inhibitors on HSP90 client signaling and viability. […] Celastrol and gedunin therefore act synergistically with existing modes of HSP90 ATP-binding site inhibition to inhibit HSP90 client signaling and viability in a cellular context, consistent with their inhibition of HSP90 via a distinct mechanism.
as §1

HSP90 = HSP90 conformational change assay (bis-ANS); format: binding; settings: purified HSP90 200 nM, bis-ANS 50 μM
Description: The final volume in each well was 100 μL. The plate was covered with foil and mixed for 30 s on a plate shaker before incubation for 60 min. at 37° C. Relative fluorescence units were measured using a SpectraMx Gemini XS spectrofluorometer (Molecular Devices Corporation, Sunnyvale, Calif.) at an excitation wavelength for bis-ANS of 393 nm and an emission wavelength of 484 nm. The data were acquired using the SOFTmaxPRO software (Molecular Devices Corporation, Sunnyvale, Calif.).

[4] = system: androgen signaling signature in LNCaP cells; test: Synergy with HSP90 inhibitors on the androgen signaling signature (isobologram); format: cell-based; settings: 24 hr, isobologram analysis
Text: as §2, §1

[5] = system: androgen-responsive gene expression in LNCaP cells; test: Genome-wide gene expression profiling with hierarchical clustering of androgen-responsive genes; format: cell-based; settings: androgen-stimulated LNCaP, celastrol 1.25 μM, gedunin 20 μM, 24 hr
Description: We next asked whether celastrol and gedunin inhibit the broader program of androgen signaling beyond the GE-HTS signature. To address this question, we compared the genome-wide gene expression profiles of androgen-stimulated LNCaP cells treated with celastrol (1.25 μM) and gedunin (20 μM) for 24 hr to those of androgen-stimulated and androgen-deprived cells.
The mRNA expression profiles of celastrol- and gedunin-treated cells were determined by Affymetrix U133A microarray analysis in triplicate. RNA was isolated by Trizol extraction from LNCaP cells treated with vehicle, 1.25 μM celastrol, or 20 μM gedunin (1) for 24 hr in RPMI, 10% charcoal-stripped FBS, and 1 nM R1881 or vehicle, following androgen deprivation in charcoal-stripped media for 2 days, and (2) for 6 hr in RPMI with 10% FBS. IVT, labeling, hybridization, and washing were carried out on the Affymetrix High-Throughput Array platform using HT_HG-U133A preproduction arrays (early access version; part number 520276) for all but the 24 hr gedunin samples. U133A version 2 arrays were used for the 24 hr gedunin samples for technical reasons. Raw data were processed by RMA. For hierarchical clustering, a 169 probe set of androgen-regulated genes was defined and used to perform average linkage clustering (see below). […]

BCR-ABL1 = test: Western blot of HSP90 client BCR-ABL1 level; format: cell-based, human; settings: for protein level of BCR-ABL1: 24 hr, several cell lines, concentration-dependent
Description: To more broadly establish the effects of celastrol and gedunin on the HSP90 pathway, we tested whether these compounds decrease the protein levels of other HSP90 clients.
Celastrol (Calbiochem) and gedunin (Gaia Chemicals) were solubilized in DMSO. LNCaP.FGC cells (ATCC) were grown in RPMI 1640 (ATCC) with 10% FBS. Ba/F3 cells stably expressing human FLT3, EGFR, and BCR-ABL1 were grown in RPMI 1640, 10% FBS, and 2 ng/ml IL-3. SKBr3 cells were grown in a 1:1 DME:F12 plus 10% FBS.

AR = test: Western blot of AR protein level; format: cell-based; settings: for concentration at and above which AR levels are decreased / concentration giving almost complete ablation of AR levels: LNCaP cells, 24 hr
Description: We first asked whether celastrol and gedunin decrease the levels of AR itself. […] Celastrol decreased AR levels in LNCaP cells at 0.5 μM and above, while gedunin decreases their levels at 10 μM and above. […] These concentration-dependent effects on AR are consistent with the observed inhibitory effects on AR-mediated signaling.

Structure (SMILES) | apoptosis in SKBR breast cancer cell line [1] | LNCaP cell viability at higher concentrations (LNCaP cells [2]) | adherent growth of androgen-stimulated LNCaP cells (LNCaP cells [2]) | combined effect with geldanamycin and 17-AAG on cell growth (ATP level) (LNCaP cells [3]) | inhibition of HSP90 conformational changes induced by bis-ANS (HSP90) | combined effect with geldanamycin and 17-AAG on the androgen signaling signature [4] | broader program of androgen signaling (genome-wide expression, hierarchical clustering) [5] | protein level of BCR-ABL1 (BCR-ABL1) | concentration at and above which AR levels are decreased (AR) [µM] | concentration giving almost complete ablation of AR levels (AR) [µM] | sensitivity of BCR-ABL T315I point mutant to inhibition (BCR-ABL1; Ba/F3 cells, relative to non-mutant) | AR protein by immunoblotting (AR; gedunin-treated LNCaP cells)
CC1=C(O)C(=O)C=C2C1=CC=C1[C@@]2(C)CC[C@@]2(C)[C@@H]3C[C@](C)(C(=O)O)CC[C@]3(C)CC[C@]12C [celastrol] | induct apoptosis | markedly decrease LNCaP prostate cancer cell viability | inhibit adherent and anchorage-independent growth | synergistically inhibit cell growth | binds purified HSP90 in vitro | mild synergy | invoked a broader gene expression program similar to that induced by androgen deprivation | lowered the protein levels | ≥ 0.5 | 1 |  | 
CC(=O)O[C@@H]1C[C@H]2C(C)(C)C(=O)C=C[C@]2(C)[C@H]2CC[C@@]3(C)[C@H](c4ccoc4)OC(=O)[C@H]4O[C@]43[C@@]21C [gedunin] | induct apoptosis | markedly decrease LNCaP prostate cancer cell viability | inhibit adherent and anchorage-independent growth | synergistically inhibit cell growth | the effect is not well seen | mild synergy | invoked a broader gene expression program similar to that induced by androgen deprivation | lowered the protein levels | ≥ 10 | 20 | increased sensitivity | nearly entirely eliminated
